Read-outs that look alike come from different tables or passages of the source. Marks after values point to notes of the source that are not given here.
Structure (SMILES)	Log P (pH 2.7)	further results
CCCCCC(C)NC(=C(C#N)C(=O)OCC)c1sc(C)nc1C(F)(F)F (stereo not drawn) [Compound 856]	4.81^[a]	–
CCCCC[C@H](C)N/C(=C(/C#N)C(=O)OCC)c1ccsc1Br [Compound 861]	4.94^[a]	–
CCCCCC(C)N/C(=C(/C#N)C(=O)OCC)c1ccsc1Br (stereo not drawn) [Compound 862]	4.99^[a]	–
CCCC(C)NC(=C(C#N)C(=O)OCC)c1cn(C)nc1C(F)F (stereo not drawn) [Compound 864]	3.19^[a]	–
CCCC(C)NC(=C(C#N)C(=O)OCC)c1sccc1C(F)(F)F (stereo not drawn) [Compound 865]	4.21^[a]	–
CCCC(C)NC(=C(C#N)C(=O)OC)c1sc(C)nc1C(F)(F)F (stereo not drawn) [Compound 866]	3.61^[a]	–
CCCC(C)NC(=C(C#N)C(=O)OCC)c1sccc1Br (stereo not drawn) [Compound 867]	4.16^[a]	–
CCCC(C)NC(=C(C#N)C(=O)OCC)c1sc(C)nc1C(F)(F)F (stereo not drawn) [Compound 868]	3.96^[a]	–
COC(=O)C(C#N)=C(NC(C)C#N)c1cccnc1Cl (stereo not drawn) [Compound 869]	–	Log P (pH 2.3): 1.85; Log P (pH 7.5): 1.86
COC(=O)C(C#N)=C(N[C@@H](C)C1CCCCC1)c1cccnc1Cl [Compound 870]	–	Log P (pH 7.5): 3.76
COC(=O)C(C#N)=C(N[C@H](C)C1CCCCC1)c1cccnc1Cl [Compound 871]	–	Log P (pH 7.5): 3.76
CCOC(=O)C(C#N)=C(NC(C)C1CCCCC1)c1cn(C)nc1C(F)F (stereo not drawn) [Compound 872]	3.92^[a]	–
CCOC(=O)C(C#N)=C(NC(C)C1CCCCC1)c1sccc1C(F)(F)F (stereo not drawn) [Compound 873]	5.11^[a]	–
COC(=O)C(C#N)=C(NC(C)C1CCCCC1)c1sc(C)nc1C(F)(F)F (stereo not drawn) [Compound 874]	4.46^[a]	–
CCOC(=O)C(C#N)=C(NC(C)C1CCCCC1)c1sccc1Br (stereo not drawn) [Compound 875]	5.11^[a]	–
CCOC(=O)C(C#N)=C(NC(C)C1CCCCC1)c1sc(C)nc1C(F)(F)F (stereo not drawn) [Compound 876]	4.86^[a]	–
CCOC(=O)C(C#N)=C(NC(C)C1CCCCC1)c1ccsc1Br (stereo not drawn) [Compound 877]	5.03^[a]	–
CCOC(=O)C(C#N)=C(NC(C)C1CC1)c1cccnc1Cl (stereo not drawn) [Compound 878]	–	Log P (pH 7.5): 2.93

Structure (SMILES)	Log P (pH 2.7)	further results
CCOC(=O)C(C#N)=C(NC(C)C1CC1)c1cc(C)oc1C (stereo not drawn) [Compound 879]	3.63^[a]	–
COC(=O)C(C#N)=C(NC(C)C1CC1)c1cccnc1Cl (stereo not drawn) [Compound 880]	2.58^[a]	–
CCOC(=O)C(C#N)=C(NC(C)C1CC1)c1ccc(C)nc1Cl (stereo not drawn) [Compound 881]	–	Log P (pH 7.5): 3.32
CCOC(=O)C(C#N)=C(NC(C)C1CC1)c1cn(C)nc1C(F)F (stereo not drawn) [Compound 882]	2.88^[a]	–
CCOC(=O)C(C#N)=C(NC(C)C1CC1)c1sccc1C(F)(F)F (stereo not drawn) [Compound 883]	3.83^[a]	–
COC(=O)C(C#N)=C(NC(C)C1CC1)c1sc(C)nc1C(F)(F)F (stereo not drawn) [Compound 884]	3.27^[a]	–
CCOC(=O)C(C#N)=C(NC(C)C1CC1)c1sccc1Br (stereo not drawn) [Compound 885]	3.76^[a]	–
CCOC(=O)C(C#N)=C(NC(C)C1CC1)c1sc(C)nc1C(F)(F)F (stereo not drawn) [Compound 886]	3.61^[a]	–
CCOC(=O)C(C#N)=C(NC(C)C1CC1)c1cc(Cl)sc1Cl (stereo not drawn) [Compound 887]	4.36^[a]	–
CCOC(=O)C(C#N)=C(NC(C)C1CC1)c1nc(Cl)ccc1Cl (stereo not drawn) [Compound 888]	3.73^[a]	–
CCOC(=O)C(C#N)=C(NC(C)C1CC1)c1ncc(Cl)cc1Cl (stereo not drawn) [Compound 889]	3.8^[a]	–
CCOC(=O)C(C#N)=C(NC(C)C1CC1)c1cnc(Cl)cc1Cl (stereo not drawn) [Compound 890]	3.64^[a]	–
CCOC(=O)C(C#N)=C(NC(C)C1CC1)c1cn(C)nc1OC (stereo not drawn) [Compound 891]	2.8^[a]	–
CCOC(=O)C(C#N)=C(NC(C)C1CC1)c1cccnc1C(F)(F)F (stereo not drawn) [Compound 892]	3.35^[a]	–
CCOC(=O)C(C#N)=C(NC(C)C1CC1)c1sc(Cl)nc1Cl (stereo not drawn) [Compound 893]	3.87^[a]	–
CCOC(=O)C(C#N)=C(NC(C)C1CC1)c1cccnc1Cl (stereo not drawn) [Compound 909]	3.1^[a]	–
CCOC(=O)C(C#N)=C(NC(C)C1CC1)c1cccnc1Cl (stereo not drawn) [Compound 910]	3.1^[a]	–
